# According to ChEMBL document CHEMBL4483862, “Open-source discovery of chemical leads for next-generation chemoprotective antimalarials” (2018):
# System: Plasmodium berghei
# Experiment: Luciferase/luciferin-expressing antifolate-resistant parasites were used to infect a culture of HepG2 cells that were pre-incubated with compounds. Infected hepatocytes emit light due to the luciferase reaction. Assay results are presented as the percent inhibition of light emission compared to control. […]
# Format: functional
# Settings: sporozoite; for IC90: read-out: LUCIFERASE INFECTION ASSAY - IC90
# [1] = read-out: LUCIFERASE INFECTION ASSAY - IC50
SMILES,IC90,IC50 [1],also measured
CCCCN(C)CC(O)Cn1c2ccc(Br)cc2c2cc(Br)ccc21 (configuration not stated),> 7.05 µM,,"IC50 (PBLUC_HILL_SLOPE 8.48, PBLUC_R_SQUARED 0.699, read-out: LUCIFERASE INFECTION ASSAY - IC50): 5.83 µM"
CC(CCc1ccccc1)NC(=O)CN1CCN(C/C=C/c2ccccc2)CC1 (configuration not stated),> 10 µM,> 10 µM,
CCCn1c(NC(=O)c2ccc(CS(=O)(=O)c3ccccc3)o2)nc2ccccc21,4.08 µM,,"IC50 (HEPG2TOX_HILL_SLOPE 2.08, HEPG2TOX_R_SQUARED 0.973, PBLUC_HILL_SLOPE 1.97, PBLUC_R_SQUARED 0.429, read-out: LUCIFERASE INFECTION ASSAY - IC50): 1.34 µM"
Cc1sc2ncnc(Oc3ccc4ccccc4c3)c2c1-c1ccccc1,> 10 µM,,"IC50 (HEPG2TOX_HILL_SLOPE 0.313, HEPG2TOX_R_SQUARED 0.61, PBLUC_HILL_SLOPE 2.74, PBLUC_R_SQUARED 0.421, read-out: LUCIFERASE INFECTION ASSAY - IC50): 6.76 µM"
Cc1nc(-c2cccs2)sc1NC(=O)Nc1ccc(Cl)cc1,> 9.43 µM,> 9.43 µM,
CCCCNC(=O)c1c(NC(=O)c2cc(F)cc(F)c2)nc2ccccn12,1.17 µM,,"IC50 (FFLUC_HILL_SLOPE 9.87, FFLUC_R_SQUARED 0.392, HEPG2TOX_HILL_SLOPE 0.611, HEPG2TOX_R_SQUARED 0.894, PBLUC_HILL_SLOPE 4.02, PBLUC_R_SQUARED 0.616, read-out: LUCIFERASE INFECTION ASSAY - IC50): 0.679 µM"
CN1CCN(c2ccc(-c3cn4c(-c5ccc6c(c5)OCO6)cnc4cn3)cn2)CC1,> 7.96 µM,,"IC50 (PBLUC_HILL_SLOPE 2.2, PBLUC_R_SQUARED 0.54, read-out: LUCIFERASE INFECTION ASSAY - IC50): 6.26 µM"
COCCCN1C(=O)N(Cc2ccc3ccccc3c2)C(=O)C12CCN(Cc1ccc(C)cc1)CC2,> 6.8 µM,,"IC50 (PBLUC_HILL_SLOPE 3.14, PBLUC_R_SQUARED 0.039, read-out: LUCIFERASE INFECTION ASSAY - IC50): 4.02 µM"
Cc1ccc(SCc2cc(=O)n3nc(C)c(-c4ccccc4)c3[nH]2)cc1,> 9.13 µM,,"IC50 (PBLUC_HILL_SLOPE 11, PBLUC_R_SQUARED 0.259, read-out: LUCIFERASE INFECTION ASSAY - IC50): 7.6 µM"
CN(C)c1ccc(C(c2cc(C(C)(C)C)c(O)c(C(C)(C)C)c2)N2CCCCC2)cc1 (configuration not stated),> 10 µM,> 10 µM,
COc1cccc(-c2[nH]nc3ccnc(-c4ccc(C(C)C)cc4)c23)c1,> 10 µM,,"IC50 (FFLUC_HILL_SLOPE 13.2, FFLUC_R_SQUARED 0.418, read-out: LUCIFERASE INFECTION ASSAY - IC50): > 10 µM"
CSc1ccccc1NC(=O)CN1CCN(C(c2ccccc2)c2ccccc2)CC1,6.36 µM,,"IC50 (HEPG2TOX_HILL_SLOPE 7.79, HEPG2TOX_R_SQUARED 0.752, PBLUC_HILL_SLOPE 3.88, PBLUC_R_SQUARED 0.663, read-out: LUCIFERASE INFECTION ASSAY - IC50): 3.61 µM"
O=C(Nc1ccc(-n2cccn2)nc1)C1=NN(c2ccccc2)C(=O)CN1,> 10 µM,,"IC50 (PBLUC_HILL_SLOPE 2.66, PBLUC_R_SQUARED 0.194, read-out: LUCIFERASE INFECTION ASSAY - IC50): > 10 µM"
Cc1noc(C)c1C(=O)ONC(=N)c1ccc(OC(F)(F)F)cc1,> 9.61 µM,> 9.61 µM,
CC(C)S(=O)(=O)c1cscc1NC(=O)c1ccc(-c2cc(C(F)(F)F)nn2C)s1,> 7.12 µM,,"IC50 (PBLUC_HILL_SLOPE 12.2, PBLUC_R_SQUARED 0.329, read-out: LUCIFERASE INFECTION ASSAY - IC50): 6.55 µM"
Cc1ccc(C(C)C)c(OCCCNCCc2ccccc2)c1,9.99 µM,,"IC50 (HEPG2TOX_HILL_SLOPE 12.1, HEPG2TOX_R_SQUARED 0.387, PBLUC_HILL_SLOPE 24.3, PBLUC_R_SQUARED 0.56, read-out: LUCIFERASE INFECTION ASSAY - IC50): 9.13 µM"
COc1ccc2c(-c3ccccc3)cc(SC(c3ccccc3)c3ccccc3)nc2c1,> 10 µM,,"IC50 (FFLUC_HILL_SLOPE 74, FFLUC_R_SQUARED 0.292, read-out: LUCIFERASE INFECTION ASSAY - IC50): > 10 µM"
CCOC(=O)c1cnc2cc(Cl)c(F)cc2c1Sc1ccc(Cl)cc1,> 8.33 µM,> 8.33 µM,
COc1cc(-n2cnc3cnc(Nc4cccc(C(F)(F)F)c4)cc32)cc(OC)c1OC,> 10 µM,> 10 µM,
CCCn1c(NC(=O)CSc2ccc3c4c(cccc24)C(=O)c2ccccc2-3)nc2ccccc21,3.87 µM,,"IC50 (PBLUC_HILL_SLOPE 16.8, PBLUC_R_SQUARED 0.332, read-out: LUCIFERASE INFECTION ASSAY - IC50): 3.39 µM"
O=C(O)COc1ccccc1/C=C1\NC(=S)NC1=O,> 10 µM,> 10 µM,

SMILES,IC90,IC50 [1],also measured
CCc1ccc(NC(=O)C[n+]2c3n(c4c(F)c(F)ccc42)CCCCC3)cc1,9.39 µM,,"IC50 (HEPG2TOX_HILL_SLOPE 3.71, HEPG2TOX_R_SQUARED 0.507, PBLUC_HILL_SLOPE 2.96, PBLUC_R_SQUARED 0.697, read-out: LUCIFERASE INFECTION ASSAY - IC50): 4.47 µM"
CC(=O)Nc1ccc(Nc2nc3cc(S(=O)(=O)Nc4cccc(Cl)c4)ccc3o2)cc1,9.97 µM,,"IC50 (HEPG2TOX_HILL_SLOPE 0.957, HEPG2TOX_R_SQUARED 0.862, PBLUC_HILL_SLOPE 2.24, PBLUC_R_SQUARED 0.74, read-out: LUCIFERASE INFECTION ASSAY - IC50): 3.74 µM"
CCCc1ccc(C(=O)C(C)Sc2nnc(-c3ccc(OC(F)F)cc3)o2)cc1 (configuration not stated),> 10 µM,> 10 µM,
CC(C)c1ccc(CSc2nnc(CC3CCS(=O)(=O)C3)o2)cc1 (configuration not stated),> 10 µM,> 10 µM,
CC(C(=O)Nc1cccc(C#Cc2cccs2)c1)n1cnc2ccccc21 (configuration not stated),> 10 µM,> 10 µM,
COC(=O)c1cnc(Sc2ccc(C(F)(F)F)cn2)c([N+](=O)[O-])c1,> 9.18 µM,,"IC50 (HEPG2TOX_HILL_SLOPE 7.53, HEPG2TOX_R_SQUARED 0.667, PBLUC_HILL_SLOPE 5.12, PBLUC_R_SQUARED 0.221, read-out: LUCIFERASE INFECTION ASSAY - IC50): > 9.18 µM"
C/C(=N\OCc1ccccc1)c1cc(-c2ccccc2)c(C(F)(F)F)s1,> 8.79 µM,,"IC50 (PBLUC_HILL_SLOPE 1.7, PBLUC_R_SQUARED 0.604, read-out: LUCIFERASE INFECTION ASSAY - IC50): 4.91 µM"
O=C(Cn1ncc(Cl)c(Cl)c1=O)Nc1cc(Cl)ccc1[N+](=O)[O-],3.5 µM,,"IC50 (FFLUC_HILL_SLOPE 13.5, FFLUC_R_SQUARED 0.43, HEPG2TOX_HILL_SLOPE 9.94, HEPG2TOX_R_SQUARED 0.973, PBLUC_HILL_SLOPE 20.4, PBLUC_R_SQUARED 0.69, read-out: LUCIFERASE INFECTION ASSAY - IC50): 3.14 µM"
Cc1noc(C)c1COc1cccc(C(=O)Nc2cccc(S(=O)(=O)Nc3cccc(C(F)(F)F)c3)c2)c1,> 10 µM,,"IC50 (FFLUC_HILL_SLOPE 1.54, FFLUC_R_SQUARED 0.286, HEPG2TOX_HILL_SLOPE 4.14, HEPG2TOX_R_SQUARED 0.909, PBLUC_HILL_SLOPE 1.42, PBLUC_R_SQUARED 0.59, read-out: LUCIFERASE INFECTION ASSAY - IC50): 6.04 µM"
CCC1c2ccsc2CCN1C(=O)C1CCN(S(=O)(=O)c2ccc(Cl)c([N+](=O)[O-])c2)CC1 (configuration not stated),> 10 µM,> 10 µM,
Cc1ccc(C(=O)Nc2nc3cc4c(cc3s2)OCCO4)s1,> 10 µM,,"IC50 (PBLUC_HILL_SLOPE 9.57, PBLUC_R_SQUARED 0.436, read-out: LUCIFERASE INFECTION ASSAY - IC50): 8.59 µM"
NC1=Nc2cccc3cccc(c23)N1,12.9 µM,,"IC50 (FFLUC_HILL_SLOPE 1.44, FFLUC_R_SQUARED 0.698, HEPG2TOX_HILL_SLOPE 2.55, HEPG2TOX_R_SQUARED 0.966, PBLUC_HILL_SLOPE 3.15, PBLUC_R_SQUARED 0.786, read-out: LUCIFERASE INFECTION ASSAY - IC50): 6.42 µM"
O=C(CN1CCC(c2c[nH]c3ccccc23)CC1)Nc1ccc(Cl)c([N+](=O)[O-])c1,9.15 µM,,"IC50 (FFLUC_HILL_SLOPE 16.3, FFLUC_R_SQUARED 0.426, PBLUC_HILL_SLOPE 3.46, PBLUC_R_SQUARED 0.601, read-out: LUCIFERASE INFECTION ASSAY - IC50): 4.85 µM"
Cc1ccccc1-n1c(SCC(=O)NC2CCCCC2)nc(O)cc1=O,3.36 µM,,"IC50 (PBLUC_HILL_SLOPE 12.2, PBLUC_R_SQUARED 0.38, read-out: LUCIFERASE INFECTION ASSAY - IC50): 2.81 µM"
CNC(=O)c1ccc(CN(C(=O)/C=C/c2ccc(-c3ccccc3F)s2)C2CC2)cc1,6.45 µM,,"IC50 (PBLUC_HILL_SLOPE 95.6, PBLUC_R_SQUARED 0.262, read-out: LUCIFERASE INFECTION ASSAY - IC50): 6.3 µM"
Nc1ccc(SC(F)(F)F)cc1,> 10 µM,> 10 µM,
COc1ccccc1C(CCNCc1ccc(F)cc1)c1ccco1 (configuration not stated),1.66 µM,,"IC50 (HEPG2TOX_HILL_SLOPE 6.69, HEPG2TOX_R_SQUARED 0.485, PBLUC_HILL_SLOPE 6.64, PBLUC_R_SQUARED 0.691, read-out: LUCIFERASE INFECTION ASSAY - IC50): 1.19 µM"
O=C1/C(=C/c2ccc(SC(F)(F)F)cc2)SC(=S)N1CCN1CCOCC1,> 10 µM,> 10 µM,
CC(=O)c1c(C)[nH]c(C(=O)CSc2c(C)c(C)cc(C)c2C)c1C,> 10 µM,,"IC50 (PBLUC_HILL_SLOPE 11.6, PBLUC_R_SQUARED 0.344, read-out: LUCIFERASE INFECTION ASSAY - IC50): > 10 µM"
CN1CCN(c2ccc(Cl)cc2NC(=O)c2cccc(Oc3ccccc3)c2)CC1,2.23 µM,,"IC50 (PBLUC_HILL_SLOPE 1.31, PBLUC_R_SQUARED 0.699, read-out: LUCIFERASE INFECTION ASSAY - IC50): 0.415 µM"
